Tested on: 885512-296-R-J2-PDC complex spheroid viability
Test: Anticancer human tumor 885512-296-R-J2-PDC patient-derived breast carcinoma cell line growth inhibition
Settings: for IC50: curve of first compound; for viability, T/C: stronger effect = lower value
Source text: Multicellular complex tumor spheroid response to LSD1 Inhibitor Iadademstat in combination with a variety of drugs and investigational agents in selected tumor cell lines
The current study was undertaken to assess response to LSD1 inhibitors in combination with standard-of-care drugs and investigational agents in solid tumor complex spheroid models as well as in the K-562 leukemia. Complex spheroids include a stromal component modeled by human endothelial cells (HUVEC) and fibroblasts modeled by human mesenchymal stem cells (MSCs). The concentration ranges selected for each drug and investigational agent were based upon clinically achievable concentrations if the clinical Cmax of the agent was known.
Compounds. The drugs and investigational agents used in this study are listed on Table 1. All of the agents used, including staurosporine (NSC755774) and gemcitabine (NSC613327), were obtained from the Developmental Therapeutics Program, NCI. FDA-approved anticancer drugs are available from the NCI at http://dtp.nci.nih.gov/branches/dscb/oncology_drugset_explanation.html. Drugs and investigational agents were >95% pure by proton nuclear magnetic resonance (NMR) and liquid chromatography/mass spectrometry (LC/MS). Stock solutions were prepared at 400x in DMSO, stored at -70 degrees C, and diluted in fresh medium prior to their use. The final concentration of DMSO in cell culture wells never exceeded 0.25% (v/v). The FDA-approved anticancer drug set is available from the Developmental Therapeutics Program at https://dtp.cancer.gov/organization/dscb/obtaining/available_plates.htm. All drugs and investigational agents were tested over a range starting from a high concentration at or near the clinical Cmax and decreasing in half-log increments. If the clinical Cmax for an agent had not been determined, the highest concentration tested was 10 microM.
Cell Lines. The patient-derived cancer cell (PDC) lines: 292921-168-R-J2-PDC, K24384-001-R-PDC, and 521955-158-R2-J5-PDC pancreatic carcinomas, 556581-035-R-J1 ovarian carcinoma, 324938-238-R-J1-PDC, 855422-203-R-J1-PDC and 883617-216-R-J1-PDC urothelial bladder carcinomas, 743489-274-T-PDC renal cell carcinoma, 138582-R-J1 Merkel cell tumor, K60290-347-R-J1 and K57222-313-R-J1-PDC glioblastomas, 653999-131-R-J2-PDC, LG0703-F948-PDC, and 349418-098-R-PDC non-small cell lung carcinomas, 885512-296-R-J2-PDC, 171881-019-R-J1-PDC breast carcinomas and 186277-243-T-J2-PDC and 233499-124-R-J2-PDC colon carcinomas were obtained from the NCI Patient-Derived Models Repository (PDMR, https://pdmr.cancer.gov). The established cell lines NCI/ADR-RES (RRID:CVCL_14520 and OVCAR-5 (RRID:CVCL_1628) ovarian carcinomas, 786-O (RRID:CVCL_1051) and A498 (RRID:CVCL_A498) renal cell carcinoma, NCI-H211 (ATCC, cat. CRL-5824; RRID:CVCL_1529), NCI-H196 (ATCC, cat. CRL-5823, RRID:CVCL_1509), SW 1271 (ATCC, cat. CRL-2177, RRID:CVCL_1716) and NCI-H1876 (ATCC, cat. CRL-5902, RRID:CVCL_1503) small cell lung carcinomas, MDA-MB-231 (RRID:CVCL_0062) and MDA-MB-468 (RRID:CVCL_0419)breast carcinomas (10-12). Pooled donor human umbilical vein endothelial cells (HUVEC, Lonza, cat. CC-2519) and human mesenchymal stem cells (hMSC, Lonza, cat. PT-2501) were purchased from Lonza (Walkersville, MD).
Cell Culture. All cells were maintained in an incubator at 37 degrees C and 5% CO2 with 95% humidity. The PDC lines were cultured according to standard operating procedures established by the NCI PDMR (https://pdmr.cancer.gov). Briefly all PDCs were thawed and cultured in Matrigel-coated flasks prepared with a working solution of 1X Ham's F-12 nutrient mix, without supplementation (Invitrogen, Waltham, MA, cat. 11765054), 100 U/mL penicillin-streptomycin (Invitrogen, cat. 15140122), and 2.5% Matrigel (Corning Inc., Corning, NY, cat. 354248) for the first three passages. […]
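Also: spheroids exposed to agents for 7 days before viability read.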

CCc1c2c(nc3ccc(O)cc13)-c1cc3c(c(=O)n1C2)COC(=O)[C@]3(O)CC + NC1CC1c1ccc(-c2cccc(O)c2)cc1
IC50 (second compound 0.1 µM): < 0.949 nM
IC50 (second compound 0.316 µM): < 0.949 nM
IC50 (second compound 1 µM): < 0.949 nM
IC50 (second compound 3.16 µM): < 0.949 nM
IC50 (second compound 10 µM): < 0.949 nM
viability, T/C (second compound 0.1 µM, first compound 0.000949 µM): 1.84%
viability, T/C (second compound 0.1 µM, first compound 0.003 µM): 1.73%
viability, T/C (second compound 0.1 µM, first compound 0.00949 µM): 1.08%
viability, T/C (second compound 0.1 µM, first compound 0.03 µM): 1.22%
viability, T/C (second compound 0.1 µM, first compound 0.0949 µM): 1.37%
viability, T/C (second compound 0.1 µM, first compound 0.3 µM): 1.16%
viability, T/C (second compound 0.316 µM, first compound 0.000949 µM): 2.42%
viability, T/C (second compound 0.316 µM, first compound 0.003 µM): 1.57%
viability, T/C (second compound 0.316 µM, first compound 0.00949 µM): 1.3%
viability, T/C (second compound 0.316 µM, first compound 0.03 µM): 1.37%
viability, T/C (second compound 0.316 µM, first compound 0.0949 µM): 1.16%
viability, T/C (second compound 0.316 µM, first compound 0.3 µM): 1.05%
viability, T/C (second compound 1 µM, first compound 0.000949 µM): 1.79%
viability, T/C (second compound 1 µM, first compound 0.003 µM): 1.95%
viability, T/C (second compound 1 µM, first compound 0.00949 µM): 1.46%
viability, T/C (second compound 1 µM, first compound 0.03 µM): 1.26%
viability, T/C (second compound 1 µM, first compound 0.0949 µM): 1.14%
viability, T/C (second compound 1 µM, first compound 0.3 µM): 1.13%
viability, T/C (second compound 3.16 µM, first compound 0.000949 µM): 2.13%
viability, T/C (second compound 3.16 µM, first compound 0.003 µM): 1.76%
viability, T/C (second compound 3.16 µM, first compound 0.00949 µM): 1.07%
viability, T/C (second compound 3.16 µM, first compound 0.03 µM): 1.01%
viability, T/C (second compound 3.16 µM, first compound 0.0949 µM): 0.8%
viability, T/C (second compound 3.16 µM, first compound 0.3 µM): 0.78%
viability, T/C (second compound 10 µM, first compound 0.000949 µM): 2.37%
viability, T/C (second compound 10 µM, first compound 0.003 µM): 2.17%
viability, T/C (second compound 10 µM, first compound 0.00949 µM): 1.55%
viability, T/C (second compound 10 µM, first compound 0.03 µM): 0.87%
viability, T/C (second compound 10 µM, first compound 0.0949 µM): 0.91%
viability, T/C (second compound 10 µM, first compound 0.3 µM): 0.8%

From PubChem BioAssay AID1918946 (Molecular Pharmacology Branch, DTP, NCI, 2023)
